Test results reported in US8618046B2, “Treatment of atherosclerosis with cholesterol ester transport protein mimotopes” (Affiris AG, priority 2007, dated 2013).
Where no end group is shown, it is not given here.

Experiments:
[1] = tested on: recombinant GST-CETP; experiment: Anti-protein ELISA of sera of immunised mice, plates coated with recombinant GST-CETP; type: in vivo
Description: (§1) FIGS. 12a and 12b show the in vivo induction of CETP specific antibodies by the administration of the mimotopes of the invention. Titers to p4073 and its correlation to titers to CETP of selected groups (which show high titers against p4073): gr.4, gr.9, gr.10, gr.14, gr.16-20/gr.1 (KLH), gr.2 (original epitope) as controls. Coating: recombinant GST-CETP or purified rabbit CETP, respectively:
(§2) Sera of each group (5 Balb/c mice each) were combined, diluted 1:100 and tested on ELISA plates coated with recombinant GST-CETP or rabbit CETP, respectively. Detection of bound antibodies was with algG.
(§3) Titers to injected peptides as well as to the original CETP epitope were determined. In addition, for selected sera also immune response to CETP protein was measured (Results see FIGS. 7a to 7d and FIGS. 19a to 19e).

[2] = tested on: rabbit CETP; experiment: Anti-protein ELISA of sera of immunised mice, plates coated with purified rabbit CETP; type: in vivo, mouse
Description: as §1, §2, §3

[3] = tested on: CETP; experiment: CETP activity assay: human serum mixed with serum from vaccinated wild-type mice; type: biochemical; details: FIGS. 15 to 17 and remarks in the example set-up table; sera of vaccinated mice
[4] = tested on: irrelevant peptide-BSA; experiment: Titer to irrelevant peptide in sera of immunised animals (peptide ELISA); type: in vivo, mouse; details: for titer, p irrelevant: Table 1, mice, sera 2 weeks after 3rd injection; for titer, irrelevant peptide-BSA: FIG. 11, Balb/c mice, 30 μg peptide, Alum as adjuvant, S3, detection αIgG
Procedure: (§4) Balb/c mice/30 μg Peptide, 2 injections in 2 week intervals. S3=2 weeks after 3rd injection. Alum as adjuvant. Titers against original epitope (p4073) induced by injection of mimotopes. Well coating: 50 μl of 1 μM p4073-BSA or 1 μg/ml activated KLH. Detection: αIgG:
(§5) Subcutaneous injections in the flank were performed in week 1, week 3 and week 7 with 30 μg peptide-KLH per mouse. Intradermal injections in the ear were performed in week 1, week 3 and week 6 with 10 μg peptide-KLH per mouse. Sera were taken 2 weeks after the 3rd injection. Vaccine formulation with Alum (always 1 mg per mouse): up to 250 μl, injected into one flank. The Alum formulation with 1 ml per mouse (500 μl into each flank) was in 1×PBS as buffer.
Vaccine formulation with Gerbu Adjuvant 100 (Gerbu Cat. Nr. #3100; always 50 μl adjuvant per mouse): 200 μl, 100 μl injected into each flank comprising 1×HEPES as buffer.
Female Balb/c mice, five mice per group, were subcutaneously immunized with 30 μg peptide coupled to KLH. Control groups were administered KLH or C-[…] (SEQ ID NO. 147). As adjuvant alum was used. […] The in vitro ELISA assay to determine the antibody titer was performed with pooled sera after two vaccinations in a two week interval (S2; see FIGS. 7a to 7d). The wells of the ELISA plate were coated with KLH (positive control), mimotope-BSA conjugate, C-[…] (SEQ ID NO. 147) and a irrelevant peptide-BSA conjugate (negative control). The detection was performed with anti-mouse IgG.

[5] = tested on: original epitope (p4073); experiment: Titer to the original CETP epitope in sera of immunised animals (peptide ELISA); type: in vivo, mouse; details: for titer, original epitope-BSA: FIG. 11, Balb/c mice, 30 μg peptide, Alum as adjuvant, S3, coating 1 μM p4073-BSA, detection αIgG; for antibody response to the original CETP epitope (in words): coupled to KLH, mice and rabbits
Procedure: as §4
(§6) Inhibiting as well as some non-inhibiting peptides were coupled to KLH and injected into mice (wildtype or CETP-transgenic mice; subcutaneously into the flank or intra-dermaly into the ears) or rabbits (subcutaneously into the flank) together with an appropriate adjuvant (aluminium hydroxide and Gerbu 100 for mice and aluminium hydroxide or CFA/IFA for rabbits).
as §3, §5
Vaccine formulation with Gerbu Adjuvant 100 (Gerbu Cat. Nr. #3100; always 50 μl adjuvant per mouse): 200 μl, 100 μl injected into each flank comprising 1×HEPES as buffer. […]

[6] = tested on: injected peptide-BSA; experiment: Titer to the injected peptide in sera of immunised animals (peptide ELISA); type: in vivo, mouse; details: FIG. 11; Balb/c mice, 30 μg peptide, Alum as adjuvant; S3 = 2 weeks after 3rd injection; detection αIgG
Procedure: Balb/c mice/30 μg Peptide, 2 injections in 2 week intervals. S3=2 weeks after 3rd injection. Alum as adjuvant. […] Detection: αIgG:
as §6, §3
as §5, with “buffer. […]” for “buffer.”

[7] = FIG. 13, combined sera of 5 Balb/c mice, diluted 1:100
[8] = FIG. 12b, sera of immunised mice
[9] = FIG. 12b, sera of immunised mice, purified rabbit CETP
[10] = FIG. 12a, sera of immunised mice
[11] = FIG. 12a, sera of immunised mice, purified rabbit CETP

p4362-KLH/Alum: C-FGFPAHVYIDWLQSLS coupled to KLH, Alum (CFGFPAHVYIDWLQSLS; also: coupled to KLH)
ELISA signal, recombinant GST-CETP [1, 7]: 0.86 | ELISA signal, rabbit CETP [2, 7]: 0.94 | inhibition of CETP activity in human serum (in words) [3]: inhibits significantly CETP activity

p4223-KLH: F2-9; C-SFLDTLT coupled to KLH (CSFLDTLT; also: coupled to KLH)
titer, p irrelevant ([4]; Alum s.c. (30 μg peptide)): no titer

p4342-KLH: C-FSFPAHVSIDWLQSLS coupled to KLH (CFSFPAHVSIDWLQSLS; also: coupled to KLH)
ELISA signal, recombinant GST-CETP [1, 8]: 0.38 | ELISA signal, rabbit CETP [2, 9]: 0.41 | titer, original epitope-BSA [5]: 1.610 | titer, irrelevant peptide-BSA [4]: 10 | titer, injected peptide-BSA [6]: 4.620

p4358-KLH: C-FGFPAHISIDWLQSLS coupled to KLH (CFGFPAHISIDWLQSLS; also: coupled to KLH)
ELISA signal, recombinant GST-CETP [1, 10]: 0.68 | ELISA signal, rabbit CETP [2, 11]: 0.58 | titer, original epitope-BSA [5]: 12.940 | titer, irrelevant peptide-BSA [4]: 10 | titer, injected peptide-BSA [6]: 16.500

p4324-KLH: C-FGFPSHLIIDWAQSLS coupled to KLH (CFGFPSHLIIDWAQSLS; also: coupled to KLH)
ELISA signal, recombinant GST-CETP [1, 10]: 0.58 | ELISA signal, rabbit CETP [2, 11]: 0.28 | titer, original epitope-BSA [5]: 7.600 | titer, irrelevant peptide-BSA [4]: 10 | titer, injected peptide-BSA [6]: 12.570

p4340-KLH: C-PGFPAHVSIDWLQSLS coupled to KLH (CPGFPAHVSIDWLQSLS; also: coupled to KLH)
ELISA signal, recombinant GST-CETP [1, 10]: 0.49 | ELISA signal, rabbit CETP [2, 11]: 0.21 | titer, original epitope-BSA [5]: 15.640 | titer, irrelevant peptide-BSA [4]: 10 | titer, injected peptide-BSA [6]: 18.100

C-RMFPESFLDTLW (N-terminal Cys; CETP mimotope) [P12-21]
antibody response to the original CETP epitope (in words) [5]: induced an immune response to the original CETP epitope in wt mice and in rabbits

p4187-KLH: F3-34 C-TFLSSLA coupled to KLH (CTFLSSLA; also: coupled to KLH)
titer, p irrelevant ([4]; Alum s.c. (30 μg peptide)): no titer | titer, p irrelevant ([4]; KLH/Gerbu s.c. (30 μg peptide)): no titer

p4227-KLH: P12-19; C-SANPRDFLETLF coupled to KLH (CSANPRDFLETLF; also: coupled to KLH)
titer, P4073 (FGFPEHLLVDFLQSLS) ([5]; Table 1, KLH/Alum i.d. (10 μg peptide), mice, sera 2 weeks after 3rd injection): no titer | titer, p irrelevant ([4]; Alum s.c. (30 μg peptide)): no titer | titer, p irrelevant ([4]; KLH/Alum i.d. (10 μg peptide)): no titer

p4188-KLH: F3-38 C-GFLDSLM coupled to KLH (CGFLDSLM; also: coupled to KLH)
titer, p irrelevant ([4]; Alum s.c. (30 μg peptide)): no titer | titer, p irrelevant ([4]; KLH/Alum i.d. (10 μg peptide)): no titer

C-SANPRDFLETLF (N-terminal Cys; CETP mimotope) [P12-19]
antibody response to the original CETP epitope (in words) [5]: induced an immune response to the original CETP epitope in wt mice and in rabbits

p4345-KLH: C-FATPSHLIIDWLQSLS coupled to KLH (CFATPSHLIIDWLQSLS; also: coupled to KLH)
ELISA signal, recombinant GST-CETP [1, 8]: 0.39 | ELISA signal, rabbit CETP [2, 9]: 0.46 | titer, original epitope-BSA [5]: 1.270 | titer, irrelevant peptide-BSA [4]: 10 | titer, injected peptide-BSA [6]: 8.380

p4351-KLH: C-FGFPAHVSIDWLQYLS coupled to KLH (CFGFPAHVSIDWLQYLS; also: coupled to KLH)
ELISA signal, recombinant GST-CETP [1, 8]: 0.54 | ELISA signal, rabbit CETP [2, 9]: 0.59 | titer, original epitope-BSA [5]: 2.400 | titer, irrelevant peptide-BSA [4]: 10 | titer, injected peptide-BSA [6]: 2.950
